These are literature values, as cited in patent publication US20110053979A1, “PYRIDINE DERIVATIVES USED TO TREAT OREXIN RELATED DISORDERS” (priority 2008, published 2011).

Data set [1] relates to rats.
Data set [2] deals with rats. The source holds these as a separate data set.
The next data set relates to freely-feeding rats. The settings on record: central administration, 4 hour time period.
In data set [3] the test system is rats. The settings on record: central administration at the onset of the normal sleep period, rat.

Consider `Cc1nc2ccc(NC(=O)Nc3ccnc4cccnc34)cc2o1` [SB334867], for which the “effect on hedonic eating” value in the data set on rats [1] was “potently reduced hedonic eating”. For the same compound, in the data set with rats [2], the “effect on high-fat pellet self-administration” value is on record as “attenuated high-fat pellet self-administration”.
Regarding “orexin-A: polypeptide ligand for the orexin-1 receptor; an agonist of the orexin receptors (QPLPDCCRQKTCSCRLYELLHGAGNHAAGILTL; Orexin-A; UniProt O43612 34-66, looked up)”, the “increase of food intake over control rats receiving vehicle” value with freely-feeding rats is reported as “approximately four-fold”. Also, the effect on arousal result in the data set with rats [3] was “dose-related increase in arousal”.
